Test: mn = molality of the nth substance listed, in mol/kg
Conditions: 350 kPa, Liquid; for apparent molar heat capacity: Extra sensitive DSC

[I-].[K+] [potassium iodide] + O
Conditions | apparent molar heat capacity [J/K/mol] | mass density [kg/m3]
278.15 K, m1 = 0.0151 | – | 1001.67
278.15 K, m1 = 0.0299 | – | 1003.68
278.15 K, m1 = 0.0701 | – | 1008.43
278.15 K, m1 = 0.2001 | – | 1024.58
278.15 K, m1 = 0.5376 | – | 1064.35
278.15 K, m1 = 0.6957 | – | 1081.95
278.15 K, m1 = 1.001 | – | 1117.05
278.15 K, m1 = 2.5 | – | 1271.29
278.15 K, m1 = 4.636 | – | 1453.94
278.15 K, m1 = 5.479 | – | 1515.42
278.15 K, m1 = 7.501 | – | 1648.17
283.15 K, m1 = 0.0151 | – | 1001.47
283.15 K, m1 = 0.0299 | – | 1003.4
283.15 K, m1 = 0.0701 | – | 1008.17
283.15 K, m1 = 0.2001 | – | 1024.09
283.15 K, m1 = 0.5376 | – | 1063.61
283.15 K, m1 = 0.6957 | – | 1081.08
283.15 K, m1 = 1.001 | – | 1115.82
283.15 K, m1 = 2.5 | – | 1268.99
283.15 K, m1 = 4.636 | – | 1450.65
283.15 K, m1 = 5.479 | – | 1512.83
283.15 K, m1 = 7.501 | – | 1645.23
288.15 K, m1 = 0.0151 | – | 1000.88
288.15 K, m1 = 0.0299 | – | 1002.77
288.15 K, m1 = 0.0701 | – | 1007.55
288.15 K, m1 = 0.2001 | – | 1023.33
288.15 K, m1 = 0.5376 | – | 1062.62
288.15 K, m1 = 0.6957 | – | 1080.04
288.15 K, m1 = 1.001 | – | 1114.31
288.15 K, m1 = 2.5 | – | 1266.38
288.15 K, m1 = 4.636 | – | 1448.01
288.15 K, m1 = 5.479 | – | 1510.11
288.15 K, m1 = 7.501 | – | 1642.29
298.15 K, m1 = 0.0151 | – | 998.82
298.15 K, m1 = 0.0299 | – | 1000.63
298.15 K, m1 = 0.0701 | – | 1005.39
298.15 K, m1 = 0.2001 | – | 1021
298.15 K, m1 = 0.5376 | – | 1059.83
298.15 K, m1 = 0.6957 | – | 1077.25
298.15 K, m1 = 1.001 | – | 1110.96
298.15 K, m1 = 2.5 | – | 1261.31
298.15 K, m1 = 4.636 | – | 1441.32
298.15 K, m1 = 5.479 | – | 1503.36
298.15 K, m1 = 7.501 | – | 1635.01
303.15 K, m1 = 5.479 | 1.3 | –
308.15 K, m1 = 0.0151 | – | 995.79
308.15 K, m1 = 0.0299 | – | 997.53
308.15 K, m1 = 0.0701 | – | 1002.28
308.15 K, m1 = 0.2001 | – | 1017.73
308.15 K, m1 = 0.5376 | – | 1056.13
308.15 K, m1 = 0.6957 | – | 1073.61
308.15 K, m1 = 1.001 | – | 1106.78
308.15 K, m1 = 2.5 | – | 1255.84
308.15 K, m1 = 4.001 | 0.4 | –
308.15 K, m1 = 4.636 | – | 1434.16
308.15 K, m1 = 5.479 | 1.8 | 1495.89
308.15 K, m1 = 7.501 | – | 1626.88
313.15 K, m1 = 4.001 | 1.4 | –
313.15 K, m1 = 5.479 | 1.7 | –
318.15 K, m1 = 0.0151 | – | 991.94
318.15 K, m1 = 0.0299 | – | 993.68
318.15 K, m1 = 0.0701 | – | 998.38
318.15 K, m1 = 0.2001 | – | 1013.67
318.15 K, m1 = 0.5376 | – | 1051.77
318.15 K, m1 = 0.6957 | – | 1069.13
318.15 K, m1 = 1.001 | – | 1101.94
318.15 K, m1 = 2.5 | – | 1249.89
318.15 K, m1 = 4.001 | 1.9 | –
318.15 K, m1 = 4.636 | – | 1426.64
318.15 K, m1 = 5.479 | 1.2 | 1488.09
318.15 K, m1 = 7.501 | – | 1618.36
323.15 K, m1 = 4.001 | 2 | –
323.15 K, m1 = 5.479 | 0.4 | –
328.15 K, m1 = 0.0151 | – | 987.43
328.15 K, m1 = 0.0299 | – | 989.17
328.15 K, m1 = 0.0701 | – | 993.85
328.15 K, m1 = 0.2001 | – | 1008.93
328.15 K, m1 = 0.5376 | – | 1046.78
328.15 K, m1 = 0.6957 | – | 1064
328.15 K, m1 = 1.001 | – | 1096.55
328.15 K, m1 = 2.5 | – | 1243.46
328.15 K, m1 = 4.001 | 1.7 | –
328.15 K, m1 = 4.636 | – | 1418.83
328.15 K, m1 = 5.479 | – | 1479.85
328.15 K, m1 = 7.501 | – | 1609.25
333.15 K, m1 = 4.001 | 1.3 | –
338.15 K, m1 = 0.0151 | – | 982.32
338.15 K, m1 = 0.0299 | – | 984.03
338.15 K, m1 = 0.0701 | – | 988.65
338.15 K, m1 = 0.2001 | – | 1003.58
338.15 K, m1 = 0.5376 | – | 1041.14
338.15 K, m1 = 0.6957 | – | 1058.16
338.15 K, m1 = 1.001 | – | 1090.66
338.15 K, m1 = 2.5 | – | 1236.58
338.15 K, m1 = 4.001 | 0.6 | –
338.15 K, m1 = 4.636 | – | 1410.65
338.15 K, m1 = 5.479 | – | 1471.57
338.15 K, m1 = 7.501 | – | 1600.65
348.15 K, m1 = 0.0151 | – | 976.56
348.15 K, m1 = 0.0299 | – | 978.32
348.15 K, m1 = 0.0701 | – | 982.92
348.15 K, m1 = 0.2001 | – | 997.75
348.15 K, m1 = 0.5376 | – | 1035.02
348.15 K, m1 = 0.6957 | – | 1051.97
348.15 K, m1 = 1.001 | – | 1084.3
348.15 K, m1 = 2.5 | – | 1229.37
348.15 K, m1 = 4.636 | – | 1402.31
348.15 K, m1 = 5.479 | – | 1463.16
348.15 K, m1 = 7.501 | – | 1591.74
358.15 K, m1 = 0.0151 | – | 970.33
358.15 K, m1 = 0.0299 | – | 972.11
358.15 K, m1 = 0.0701 | – | 976.68
358.15 K, m1 = 0.2001 | – | 991.55
358.15 K, m1 = 0.5376 | – | 1028.65
358.15 K, m1 = 0.6957 | – | 1045.42
358.15 K, m1 = 1.001 | – | 1077.52
358.15 K, m1 = 2.5 | – | 1221.83
358.15 K, m1 = 4.636 | – | 1393.66
358.15 K, m1 = 5.479 | – | 1455.05
358.15 K, m1 = 7.501 | – | 1583.19
368.15 K, m1 = 0.0151 | – | 963.58
368.15 K, m1 = 0.0299 | – | 965.34
368.15 K, m1 = 0.0701 | – | 969.93
368.15 K, m1 = 0.2001 | – | 984.74
368.15 K, m1 = 0.5376 | – | 1021.81
368.15 K, m1 = 0.6957 | – | 1038.47
368.15 K, m1 = 1.001 | – | 1070.31
368.15 K, m1 = 2.5 | – | 1213.99
368.15 K, m1 = 4.636 | – | 1384.78
368.15 K, m1 = 5.479 | – | 1446.45
368.15 K, m1 = 7.501 | – | 1574.23

Reference: the NIST ThermoML archive (doi:10.1016/j.jct.2007.05.008)
